Laboratory results published in patent publication US10550304B2, “Quaternary ammonium compounds and gas hydrate inhibitor compositions” (M-I DRILLING FLUIDS UK LIMITED, priority 2013, dated 2020).

How the values were obtained:
[1] = system: Skeletonema costatum; assay: Toxicity against Skeletonema costatum; type: cell-based; conditions: over 72 hours
Procedure: The toxicity of a quaternary ammonium compound or an LDHI composition comprising the quaternary ammonium compound may be evaluated by testing against Skeletonema costatum and determining EC50 values in the aquatic environment. Also the percentage biodegradation may be measured after 28 days in seawater.
Toxicity was tested against Skeletonema costatum and EC50 values determined (over 72 hours).

[2] = Biodegradation in seawater, OECD TG 306 28 day method; conditions: OECD TG 306, 28 days
Procedure: Environmental experiments were performed to test biodegradation and toxicity. The biodegradation tests used the standard OECD Guideline for Testing of Chemicals TG 306 (Biodegradability in Seawater) 28 day method (version adopted 17 Jul. 1992) for testing biodegradation of chemicals in seawater.

Compound: CCCCCCCCCCCCCC[P+](CCCC)(CCCC)CCCC.[Cl-] [TTPC, tributyl tetradecylphosphonium chloride]
- EC50 [1]: 0.016 µg/mL
- Biodegradation after 28 days [2]: 11%
